Source: EP0452101B1, “Spiro bridged and unbridged heterocyclic compounds” (ISRAEL INSTITUTE FOR BIOLOGICAL RESEARCH, priority 1990, dated 1991)
Read-outs that look alike come from different tables or passages of the source.

Columns and labels:
[1] = tested on: Male white mice of the CD-1 strain; assay: Pharmacodynamic profile and general toxicity, Part B (signs, mortality, LD50); assay type: in vivo; parameters: key to Altered spontaneous motor activity (Mot): increased (inc); decreased (dec); key to Piloerection (Pil) / Hypothermia (Hyp) / Salivation (Sal) / Lacrimation (Lac) / Diarrhea (Dia) / Mydriasis (Myd): sli = slight; mod = moderate; sev = severe; details: for Analgesia (Ana) / Convulsive seizure (Con) / Respiratory distress (Res) / Tremors (Tre): animals affected/treated
Text: Male white mice of the CD-1 strain (Charles River, UK), within the body weight range of 18-26 g, were used throughout this study, carried out on AF123, AF125 and AF125(N).
Furthermore, these initial trials clearly established that the major signs of reactions to treatment consisted primarily of signs characteristic for potential cholinomimetic activity of the test material, such as tremors, salivation, lacrimation, diarrhea, analgesia, hypothermia and vasodilation. […]

[2] = Chemical stability (thermal, aqueous solution); assay type: physicochemical
Text: Most of these compounds are relatively stable. […] Its chemical behaviour resembles that of known 2-oxazoline derivatives. […] The formation of the decomposition products can be monitored with ^1H-NMR by inspection at two regions δ 3.3-3.5 (appearance of two doublets) and 1.9-2.0 ppm (appearance of two additional singlets).
The expected decomposition pattern (when e.g., X is O and Y is N) involves opening of the oxazoline ring to form both amide and ester as shown in Scheme E, in which the quinuclidine-derived compounds are depicted illustratively. The formation of two new singlets at δ 1.9-2.0 ppm as expected for R = Me of these two structures are in agreement with this supposition. [drawing 32]
Ring opening is much faster in the presence of dilute hydrochloric acid. […] The tendency to decomposition of such salts complicates the optical separation of compounds such as AF125 and AF123. However, this problem can be overcome by using the method described for the optical separation of the enantiomers of AF125, or alternatively the amino-alcohols such as 3-aminomethylquinuclidin-3-ol can be resolved and the separated enantiomers can then be cyclized using an ester or imidate as already described. In yet another alternative the N-acyl derivatives of (e.g.) 3-aminomethylquinuclidin-3-ol can be resolved and the separated enantiomers can then be cyclized per se as shown in Scheme K: [drawing 33] […]

AF64A-treated rats = assay: Morris water maze (MWM) in AF64A-treated rats; assay type: in vivo; details: i.p.
Procedure: This animal model, which mimics the cholinergic hypofunction and cognitive impairments in SDAT was used as described in Fisher et al (J. Pharmacol. Exptl. Therap, 1991, in the press).
Rats were injected with AF64A (3 nmole/2 µl./side, icv) or saline (2 µl., icv), in presence of phosphate buffer or AF151.

Compound: CC1=NCC2(CCN(C)CC2)O1 [AF150, 2-Methyl-spiro(1,3-oxazoline-5,4')-1'-methylpiperidine]
- analgesia (tail pinch) (Mice, Male CD strain; 1 mg./kg. i.p., any time of observation): No analgesia
- analgesia (tail pinch) (Mice, Male CD strain; 5 mg./kg i.p., 15 minutes after injection): Partial analgesia
- analgesia (tail pinch) (Mice, Male CD strain; 10 mg./kg. i.p., 15 and 30 minutes): complete
- analgesia (tail pinch) (Mice, Male CD strain; 10 mg./kg. i.p., ≥ 60 minutes): no analgesia

Compound: CC1=NCC2(CN3CCC2CC3)O1 (racemic) [AF125, 2-Methyl-spiro(1,3 oxazoline-5,3')quinuclidine]
- Altered spontaneous motor activity (Mot) ([1]; 5 mg/kg i.v.): dec
- Lacrimation (Lac) ([1]; 5 mg/kg i.v.): sli
- Mydriasis (Myd) ([1]; 5 mg/kg i.v.): sli
- Salivation (Sal) ([1]; 5 mg/kg i.v.): sli
- Analgesia (Ana) ([1]; 5 mg/kg i.v.): 5/5
- Convulsive seizure (Con) ([1]; 5 mg/kg i.v.): 0/5
- Respiratory distress (Res) ([1]; 5 mg/kg i.v.): 0/5
- Tremors (Tre) ([1]; 5 mg/kg i.v.): 0/5
- Altered spontaneous motor activity (Mot) ([1]; 10 mg/kg i.v.): dec
- Diarrhea (Dia) ([1]; 10 mg/kg i.v.): sli
- Hypothermia (Hyp) ([1]; 10 mg/kg i.v.): sli
- Lacrimation (Lac) ([1]; 10 mg/kg i.v.): sli
- Mydriasis (Myd) ([1]; 10 mg/kg i.v.): sli
- Piloerection (Pil) ([1]; 10 mg/kg i.v.): sli
- Salivation (Sal) ([1]; 10 mg/kg i.v.): mod
- Analgesia (Ana) ([1]; 10 mg/kg i.v.): 5/5
- Convulsive seizure (Con) ([1]; 10 mg/kg i.v.): 0/5
- Respiratory distress (Res) ([1]; 10 mg/kg i.v.): 0/5
- Tremors (Tre) ([1]; 10 mg/kg i.v.): 0/5
- Convulsive seizure (Con) ([1]; 10 mg/kg p.os): 0/5
- Respiratory distress (Res) ([1]; 10 mg/kg p.os): 0/5
- Tremors (Tre) ([1]; 10 mg/kg p.os): 0/5
- Altered spontaneous motor activity (Mot) ([1]; 20 mg/kg i.v., Table 9): dec
- Diarrhea (Dia) ([1]; 20 mg/kg i.v., Table 9): mod
- Hypothermia (Hyp) ([1]; 20 mg/kg i.v., Table 9): mod
- Lacrimation (Lac) ([1]; 20 mg/kg i.v., Table 9): sev
- Mydriasis (Myd) ([1]; 20 mg/kg i.v., Table 9): mod
- Piloerection (Pil) ([1]; 20 mg/kg i.v., Table 9): mod
- Salivation (Sal) ([1]; 20 mg/kg i.v., Table 9): sev
- Analgesia (Ana) ([1]; 20 mg/kg i.v., Table 9): 5/5
- Convulsive seizure (Con) ([1]; 20 mg/kg i.v., Table 9): 0/5
- Respiratory distress (Res) ([1]; 20 mg/kg i.v., Table 9): 1/5
- Tremors (Tre) ([1]; 20 mg/kg i.v., Table 9): 2/5
- Lacrimation (Lac) ([1]; 20 mg/kg p.os): sli
- Salivation (Sal) ([1]; 20 mg/kg p.os): sli
- Analgesia (Ana) ([1]; 20 mg/kg p.os): 0/5
- Convulsive seizure (Con) ([1]; 20 mg/kg p.os): 0/5
- Respiratory distress (Res) ([1]; 20 mg/kg p.os): 0/5
- Tremors (Tre) ([1]; 20 mg/kg p.os): 0/5
- Altered spontaneous motor activity (Mot) ([1]; 40 mg/kg i.v.): dec
- Diarrhea (Dia) ([1]; 40 mg/kg i.v.): mod
- Hypothermia (Hyp) ([1]; 40 mg/kg i.v.): mod
- Lacrimation (Lac) ([1]; 40 mg/kg i.v.): sev
- Mydriasis (Myd) ([1]; 40 mg/kg i.v.): mod
- Piloerection (Pil) ([1]; 40 mg/kg i.v.): mod
- Salivation (Sal) ([1]; 40 mg/kg i.v.): sev
- Analgesia (Ana) ([1]; 40 mg/kg i.v.): 5/5
- Convulsive seizure (Con) ([1]; 40 mg/kg i.v.): 1/5
- Respiratory distress (Res) ([1]; 40 mg/kg i.v.): 3/5
- Tremors (Tre) ([1]; 40 mg/kg i.v.): 5/5
- Altered spontaneous motor activity (Mot) ([1]; 40 mg/kg p.os): dec
- Diarrhea (Dia) ([1]; 40 mg/kg p.os): sli
- Hypothermia (Hyp) ([1]; 40 mg/kg p.os): sli
- Lacrimation (Lac) ([1]; 40 mg/kg p.os): mod
- Piloerection (Pil) ([1]; 40 mg/kg p.os): sli
- Salivation (Sal) ([1]; 40 mg/kg p.os): sli
- Analgesia (Ana) ([1]; 40 mg/kg p.os): 3/5
- Convulsive seizure (Con) ([1]; 40 mg/kg p.os): 0/5
- Respiratory distress (Res) ([1]; 40 mg/kg p.os): 0/5
- Tremors (Tre) ([1]; 40 mg/kg p.os): 0/5
- Altered spontaneous motor activity (Mot) ([1]; 50 mg/kg p.os): dec
- Diarrhea (Dia) ([1]; 50 mg/kg p.os): sli
- Hypothermia (Hyp) ([1]; 50 mg/kg p.os): sli
- Lacrimation (Lac) ([1]; 50 mg/kg p.os): mod
- Mydriasis (Myd) ([1]; 50 mg/kg p.os): sli
- Piloerection (Pil) ([1]; 50 mg/kg p.os): mod
- Salivation (Sal) ([1]; 50 mg/kg p.os): mod
- Analgesia (Ana) ([1]; 50 mg/kg p.os): 5/5
- Convulsive seizure (Con) ([1]; 50 mg/kg p.os): 0/5
- Respiratory distress (Res) ([1]; 50 mg/kg p.os): 0/5
- Tremors (Tre) ([1]; 50 mg/kg p.os): 2/5
- LD50 ([1]; Intravenous Injection, 95% Confidence Limits 66.6 - 71.2): 68.9 mg/kg
- LD50 ([1]; Oral Administration, 95% Confidence Limits 118.4 - 152.5): 134.4 mg/kg
- thermal stability [2]: thermally stable and can be distilled at 130° without decomposition

Compound: CC1=NC2(CCN(C)CC2)CO1 [AF151, 1-methylpiperidine-4-spiro-4'-(2'-methyl-1',3'-oxazoline)]
- Path length (AF64A-treated rats; icv AF64A, AF151 0.07 mg./kg., Block 1): 729.0± 98.2 cm.
- Path length (AF64A-treated rats; icv AF64A, AF151 0.07 mg./kg., Block 2): 918.1±124.3 cm.
- Path length (AF64A-treated rats; icv AF64A, AF151 0.07 mg./kg., Block 3): 743.1±151.1 cm.
- Path length (AF64A-treated rats; icv AF64A, AF151 0.07 mg./kg., Block 4): 574.9±101.1 cm.
- Path length (AF64A-treated rats; icv AF64A, AF151 0.07 mg./kg., Reversal): 602.9± 97.9 cm.
- Path length (AF64A-treated rats; icv AF64A, AF151 0.3 mg./kg., Block 1): 862.3±151.0 cm.
- Path length (AF64A-treated rats; icv AF64A, AF151 0.3 mg./kg., Block 2): 843.5±197.5 cm.
- Path length (AF64A-treated rats; icv AF64A, AF151 0.3 mg./kg., Block 3): 539.9±146.2 cm.
- Path length (AF64A-treated rats; icv AF64A, AF151 0.3 mg./kg., Block 4): 297.9± 60.4 cm.
- Path length (AF64A-treated rats; icv AF64A, AF151 0.3 mg./kg., Reversal): 390.5± 77.0 cm.
- Path length (AF64A-treated rats; icv AF64A, AF151 1.0 mg./kg., Block 1): 656.6±107.6 cm.
- Path length (AF64A-treated rats; icv AF64A, AF151 1.0 mg./kg., Block 2): 802.7±111.1 cm.
- Path length (AF64A-treated rats; icv AF64A, AF151 1.0 mg./kg., Block 3): 795.0±131.3 cm.
- Path length (AF64A-treated rats; icv AF64A, AF151 1.0 mg./kg., Block 4): 434.4± 33.0 cm.
- Path length (AF64A-treated rats; icv AF64A, AF151 1.0 mg./kg., Reversal): 606.0± 60.0 cm.
- Path length (AF64A-treated rats; icv Sal., AF151 0.07 mg./kg., Block 1): 490.6± 74.0 cm.
- Path length (AF64A-treated rats; icv Sal., AF151 0.07 mg./kg., Block 2): 562.9± 92.7 cm.
- Path length (AF64A-treated rats; icv Sal., AF151 0.07 mg./kg., Block 3): 429.2± 76.5 cm.
- Path length (AF64A-treated rats; icv Sal., AF151 0.07 mg./kg., Block 4): 278.0± 44.0 cm.
- Path length (AF64A-treated rats; icv Sal., AF151 0.07 mg./kg., Reversal): 453.9± 76.0 cm.
- Path length (AF64A-treated rats; icv Sal., AF151 0.3 mg./kg., Block 1): 517.8± 45.3 cm.
- Path length (AF64A-treated rats; icv Sal., AF151 0.3 mg./kg., Block 2): 365.1± 58.4 cm.
- Path length (AF64A-treated rats; icv Sal., AF151 0.3 mg./kg., Block 3): 424.6± 92.3 cm.
- Path length (AF64A-treated rats; icv Sal., AF151 0.3 mg./kg., Block 4): 346.7± 64.4 cm.
- Path length (AF64A-treated rats; icv Sal., AF151 0.3 mg./kg., Reversal): 306.8± 43.3 cm.
- Path length (AF64A-treated rats; icv Sal., AF151 1.0 mg./kg., Block 1): 607.4± 90.6 cm.
- Path length (AF64A-treated rats; icv Sal., AF151 1.0 mg./kg., Block 2): 440.2± 90.1 cm.
- Path length (AF64A-treated rats; icv Sal., AF151 1.0 mg./kg., Block 3): 408.1± 97.1 cm.
- Path length (AF64A-treated rats; icv Sal., AF151 1.0 mg./kg., Block 4): 233.8± 30.6 cm.
- Path length (AF64A-treated rats; icv Sal., AF151 1.0 mg./kg., Reversal): 450.0± 93.5 cm.
